Test results published in patent US9493411B2 (AbbVie Inc., priority 2013, dated 2016).

Key:
BRD4 (BDII_E352-M457) = biological target: T1, BRD4 (BDII_E352-M457) (Homo sapiens, UniProt O60885); test: TR-FRET bromodomain binding assay, BRD4 second bromodomain; conditions: His-tagged BD2, Alexa647-labeled probe 30 nM; Ki calculated from IC50
T1 construct: made in house
Protocol: (§1) A time-resolved fluorescence resonance energy transfer (TR-FRET) assay was used to determine the affinities of compounds of the Examples listed in Table 1 for each bromodomain of BRD4. His-tagged first (BD1: amino acids K57-E168) and second (BD2: amino acids E352-E168) bromodomains of BRD4 were expressed and purified. An Alexa647-labeled BET-inhibitor was used as the fluorescent probe in the assay.
(§2) Compound dilution series were prepared in DMSO via a 3-fold serial dilution from 2.5 mM to 42 nM. Compounds were then diluted 6:100 in assay buffer (20 mM Sodium Phosphate, pH 6.0, 50 mM NaCl, 1 mM Ethylenediaminetetraacetic acid disodium salt dihydrate, 0.01% Triton X-100, 1 mM DL-Dithiothreitol) to yield 3× working solutions. Six microliters (μL) of the working solution was then transferred to white, low-volume assay plates (Costar #3673). A 1.5× assay mixture containing His-tagged bromodomain, Europium-conjugated anti-His antibody (Invitrogen PV5596) and the Alexa-647-conjugated probe molecule was also prepared. Twelve μL of this solution were added to the assay plate to reach a final volume of 18 μL. The final concentration of 1× assay buffer contains 2% DMSO, 50 μM-0.85 nM compound, 8 nM His-tagged bromodomain, 1 nM Europium-conjugated anti-His-tag antibody and 100 nM or 30 nM probe (for BDI or BDII, respectively). After a one-hour incubation at room temperature, TR-FRET ratios were determined using an Envision multilabel plate reader (Ex 340, Em […]).
(§3) TR-FRET data were normalized to the means of 24 no-compound controls (“high”) and 8 controls containing 1 μM un-labeled probe (“low”). Percent inhibition was plotted as a function of compound concentration and the data were fit with the 4 parameter logistic equation to obtain IC50s. Inhibition constants (Ki) were calculated from the IC50s, probe Kd and probe concentration. Typical Z′ values were between 0.65 and 0.75. The minimum significant ratio was determined to evaluate assay reproducibility (Eastwood et al., (2006) J Biomol Screen, 11: 253-261). The MSR was determined to be 2.03 for BDI and 1.93 for BDII, and a moving MSR (last six run MSR overtime) for both BDI and BDII was typically <3.

BRD4 (BDI_K57-E168) = biological target: T2, BRD4 (BDI_K57-E168) (Homo sapiens, UniProt O60885); test: TR-FRET bromodomain binding assay, BRD4 first bromodomain; conditions: His-tagged BD1, Alexa647-labeled probe 100 nM; Ki calculated from IC50
T2 construct: BD1: amino acids K57-E168; made in house
Protocol: as §1, §2, §3

Compound	Ki (BRD4 (BDII_E352-M457)) [µM]	Ki (BRD4 (BDI_K57-E168)) [µM]
Cc1[nH]c(-c2ccccc2NS(=O)(=O)c2cccnc2)cc1C(N)=O [Example 80, 2-methyl-5-{2-[(pyridin-3-ylsulfonyl)amino]phenyl}-1H-pyrrole-3-carboxamide]	13.4	9.39
Cc1[nH]c(-c2ccccc2NCc2ccc(NC(=O)OC(C)(C)C)cc2)cc1C(N)=O [Example 50, tert-butyl [4-({[2-(4-carbamoyl-5-methyl-1H-pyrrol-2-yl)phenyl]amino}methyl)phenyl]carbamate]		5.04
Cc1[nH]c(-c2ccccc2Oc2ccccc2Cc2ccccc2)cc1C(N)=O [Example 138, 5-[2-(2-benzylphenoxy)phenyl]-2-methyl-1H-pyrrole-3-carboxamide]	1.82	1.48
Cc1[nH]c(-c2cccc(/C=C/c3ccccc3)c2)cc1C(N)=O [Example 157, 2-methyl-5-{3-[(E)-2-phenylethenyl]phenyl}-1H-pyrrole-3-carboxamide]		7.41
Cc1[nH]c(-c2ccccc2Br)cc1C(N)=O [Example 115, 5-(2-bromophenyl)-2-methyl-1H-pyrrole-3-carboxamide]	7.12	1.85
COC(=O)CNC(=O)c1cc(-c2ccc(-c3c(C)noc3C)cc2)[nH]c1C [Example 94, methyl N-({5-[4-(3,5-dimethyl-1,2-oxazol-4-yl)phenyl]-2-methyl-1H-pyrrol-3-yl}carbonyl)glycinate]	21.5	4.82
Cc1[nH]c(-c2ccc(-c3cccc(C(=O)N(C)C)c3)cc2)cc1C(N)=O [Example 104, 5-[3′-(dimethylcarbamoyl)biphenyl-4-yl]-2-methyl-1H-pyrrole-3-carboxamide]	2.34	2.38
Cc1n[nH]c(C)c1-c1ccc(-c2cc(C(N)=O)c(C)[nH]2)cc1 [Example 112, 5-[4-(3,5-dimethyl-1H-pyrazol-4-yl)phenyl]-2-methyl-1H-pyrrole-3-carboxamide]	4.31	5.43
Cc1[nH]c(-c2ccccc2Oc2ccc(C#N)cc2)cc1C(N)=O [Example 123, 5-[2-(4-cyanophenoxy)phenyl]-2-methyl-1H-pyrrole-3-carboxamide]	12.6	1.97
Cc1[nH]c(-c2ccccc2NS(=O)(=O)CCC(F)(F)F)cc1C(N)=O [Example 82, 2-methyl-5-(2-{[(3,3,3-trifluoropropyl)sulfonyl]amino}phenyl)-1H-pyrrole-3-carboxamide]	8.72	2.96
2-methyl-5-[2-(pyridin-2-yloxy)phenyl]-1H-pyrrole-3-carboxamide [Example 131]	22.2	9.4
CC(=O)Nc1cccc(-c2cc(C(N)=O)c(C)[nH]2)c1 [Example 5, 5-[3-(acetylamino)phenyl]-2-methyl-1H-pyrrole-3-carboxamide]	6.43	8.09
Cc1[nH]c(-c2ccccc2-n2ccc(=O)cc2)cc1C(N)=O [Example 120]		4.41
Cc1[nH]c(-c2ccccc2Oc2cccc3c2CCCC3)cc1C(N)=O [Example 136, 2-methyl-5-[2-(5,6,7,8-tetrahydronaphthalen-1-yloxy)phenyl]-1H-pyrrole-3-carboxamide]	1.98	0.564
Cc1[nH]c(-c2ccccc2N(Cc2cccs2)CC2CCCC2)cc1C(N)=O [Example 60, 5-{2-[(cyclopentylmethyl)(thiophen-2-ylmethyl)amino]phenyl}-2-methyl-1H-pyrrole-3-carboxamide]	20.5	5.1
Cc1[nH]c(-c2ccccc2Oc2cccc3ccccc23)cc1C(N)=O [Example 140, 2-methyl-5-[2-(naphthalen-1-yloxy)phenyl]-1H-pyrrole-3-carboxamide]	1.3	0.607
Cc1[nH]c(-c2ccc(-c3cccc(O)c3)cc2)cc1C(N)=O [Example 98, 5-(3′-hydroxybiphenyl-4-yl)-2-methyl-1H-pyrrole-3-carboxamide]	7.01	11.3
Cc1ccccc1CNc1ccccc1-c1cc(C(N)=O)c(C)[nH]1 [Example 24, 2-methyl-5-{2-[(2-methylbenzyl)amino]phenyl}-1H-pyrrole-3-carboxamide]	1.19	1.06

Compound	Ki (BRD4 (BDII_E352-M457)) [µM]	Ki (BRD4 (BDI_K57-E168)) [µM]
Cc1[nH]c(-c2ccc(NS(C)(=O)=O)cc2)cc1C(N)=O [Example 9, 2-methyl-5-{4-[(methylsulfonyl)amino]phenyl}-1H-pyrrole-3-carboxamide]	3.14	2.88
COc1cc(CNc2ccccc2-c2cc(C(N)=O)c(C)[nH]2)cc(OC)c1OC [Example 16, 2-methyl-5-{2-[(3,4,5-trimethoxybenzyl)amino]phenyl}-1H-pyrrole-3-carboxamide]	2.02	1.18
Cc1[nH]c(-c2cccc(NS(C)(=O)=O)c2)cc1C(N)=O [Example 6, 2-methyl-5-{3-[(methylsulfonyl)amino]phenyl}-1H-pyrrole-3-carboxamide]	5.01	3.16
Cc1[nH]c(-c2ccccc2NCc2ccc(N(C)C)cc2)cc1C(N)=O [Example 37, 5-(2-{[4-(dimethylamino)benzyl]amino}phenyl)-2-methyl-1H-pyrrole-3-carboxamide]	3.58	4.68
Cc1[nH]c(-c2c(F)cccc2F)cc1C(N)=O [Example 147, 5-(2,6-difluorophenyl)-2-methyl-1H-pyrrole-3-carboxamide]	12.2	11.9
Cc1[nH]c(-c2ccccc2NCc2ccc(Cl)cc2)cc1C(N)=O [Example 11, 5-{2-[(4-chlorobenzyl)amino]phenyl}-2-methyl-1H-pyrrole-3-carboxamide]	2.51	2.87
Cc1noc(C)c1-c1ccc(-c2cc(C(N)=O)c(C)[nH]2)cc1 [Example 92, 5-[4-(3,5-dimethyl-1,2-oxazol-4-yl)phenyl]-2-methyl-1H-pyrrole-3-carboxamide]	2.43	1.69
Cc1[nH]c(-c2cccc(Oc3ccc4c(c3)OCO4)c2)cc1C(N)=O [Example 160, 5-[3-(1,3-benzodioxol-5-yloxy)phenyl]-2-methyl-1H-pyrrole-3-carboxamide]		11.5
Cc1[nH]c(-c2ccccc2Oc2ccc(S(C)(=O)=O)cc2)cc1C(N)=O [Example 132, 2-methyl-5-{2-[4-(methylsulfonyl)phenoxy]phenyl}-1H-pyrrole-3-carboxamide]		10.9
Cc1[nH]c(-c2ccccc2NS(=O)(=O)c2ccc(O)cc2)cc1C(N)=O [Example 88, 5-(2-{[(4-hydroxyphenyl)sulfonyl]amino}phenyl)-2-methyl-1H-pyrrole-3-carboxamide]		8.48
COc1ccc(CN(CC2CCCC2)c2ccccc2-c2cc(C(N)=O)c(C)[nH]2)cc1 [Example 61, 5-{2-[(cyclopentylmethyl)(4-methoxybenzyl)amino]phenyl}-2-methyl-1H-pyrrole-3-carboxamide]		8.28
Cc1[nH]c(-c2ccccc2NCc2cccc(NC(=O)OC(C)(C)C)c2)cc1C(N)=O [Example 51, tert-butyl [3-({[2-(4-carbamoyl-5-methyl-1H-pyrrol-2-yl)phenyl]amino}methyl)phenyl]carbamate]		6.7
Cc1[nH]c(-c2ccccc2NC2CCNC2)cc1C(N)=O (stereo not shown) [Example 64, 2-methyl-5-[2-(pyrrolidin-3-ylamino)phenyl]-1H-pyrrole-3-carboxamide]		1.04
Cc1[nH]c(-c2ccccc2NC2CN3CCC2CC3)cc1C(N)=O (stereo not shown) [Example 71, 5-[2-(1-azabicyclo[2.2.2]oct-3-ylamino)phenyl]-2-methyl-1H-pyrrole-3-carboxamide]		0.628
CC(=O)n1cc(CN(CC2CCCC2)c2ccccc2-c2cc(C(N)=O)c(C)[nH]2)c2ccccc21 [Example 58, 5-(2-{[(1-acetyl-1H-indol-3-yl)methyl](cyclopentylmethyl)amino}phenyl)-2-methyl-1H-pyrrole-3-carboxamide]		4.68
COc1cccc(-c2cccc(-c3cc(C(N)=O)c(C)[nH]3)c2)c1 [Example 151, 5-(3′-methoxybiphenyl-3-yl)-2-methyl-1H-pyrrole-3-carboxamide]		10.4
Cc1[nH]c(-c2ccccc2NS(=O)(=O)c2ccc(F)cc2F)cc1C(N)=O [Example 84, 5-(2-{[(2,4-difluorophenyl)sulfonyl]amino}-phenyl)-2-methyl-1H-pyrrole-3-carboxamide]		10.6
Cc1[nH]c(-c2ccccc2NS(=O)(=O)c2ccc(Cl)cc2)cc1C(N)=O [Example 81, 5-(2-{[(4-chlorophenyl)sulfonyl]amino}phenyl)-2-methyl-1H-pyrrole-3-carboxamide]		9.29
